US20020137929A1, “1 - (3-heterocyclylphenyl) isothiourea, -isourea, -guanidine and -amidine herbicidal agents” (Intellectual Property Department, BASF Aktiengesellschaft, priority 1998, published 2002)

Columns and labels:
ABUTH (Velvetleaf) = experiment: Postemergence herbicidal evaluation; type: in vivo, Abutilon theophrasti; details: postemergence
Summary of the method: (§1)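 Compound is applied as a foliar spray to seedlings about two weeks old, formulated in equal parts acetone and water with 0.5% TWEEN 20 and delivered at 40 psi to give about 0.0156–0.500 kg per hectare. Injury is rated visually 0–9 after four to five weeks.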

GALAP (Galium) = experiment: Postemergence herbicidal evaluation; type: in vivo, Galium aparine; details: postemergence
Summary of the method: as §1

ECHCG (Barnyardgrass) = experiment: Postemergence herbicidal evaluation; type: in vivo, Echinochloa crus-galli; details: postemergence
Summary of the method: as §1

SETVI (Foxtail, Green) = experiment: Postemergence herbicidal evaluation; type: in vivo, Setaria viridis; details: postemergence
Summary of the method: as §1

ORYSAT (Rice, Tebonnet) = experiment: Postemergence herbicidal evaluation; type: in vivo, Oryza sativa, (L.) Tebonnet; details: postemergence
Summary of the method: as §1

[1] = tested on: IPOHE (Morningglory, Ivyleaf); experiment: Preemergence herbicidal evaluation; type: in vivo, Ipomoea hederacea; details: rated 4-5 weeks after treatment
Summary of the method: (§2)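 Scores use a 0–9 visual scale covering stand, vigor, malformation, size and chlorosis relative to controls, rated four to five weeks after treatment. Before emergence, soil-planted seeds were sprayed with compound in aqueous acetone at roughly 0.0156–0.500 kg/ha and held in the greenhouse.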

[2] = tested on: TRZAWR (Wheat, Winter, cv Riband); experiment: Preemergence herbicidal evaluation; type: in vivo, Triticum aestivum; details: rated 4-5 weeks after treatment
Summary of the method: as §2

ZEAMX (Corn, Field) = experiment: Preemergence herbicidal evaluation; type: in vivo, Zea mays; details: rated 4-5 weeks after treatment
Summary of the method: as §2

[3] = tested on: ECHORC (Watergrass (Calif.)); experiment: Preemergence weed control under flooded paddy conditions; type: in vivo, Echinochloa oryzoides; details: rated 3-4 weeks after treatment
Summary of the method: (§3)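 Herbicidal effect is scored visually on a 0-9 scale against an untreated control, three to four weeks after compounds are pipetted into the flood water (1.5 to 3 cm deep) over seeds planted in silt loam at 0.5 cm depth. Rates: about 0.0313 to 0.500 kg/ha.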

CYPIR (Rice Flatsedge) [4] = experiment: as above; type: in vivo, Cyperus iria; details: rated 3-4 weeks after treatment
Summary of the method: as §3

CYPIR (Rice Flatsedge) [5] = experiment: Postemergence weed control under flooded paddy conditions; type: in vivo, Cyperus iria; details: postemergence weeds, rated 3 to 4 weeks after treatment
Summary of the method: (§4)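 Herbicidal effect is judged by eye on a 0–9 scale versus control, 3–4 weeks after dosing. Dosing is into flood water kept 1.5–3 cm over the soil, at about 0.0313–0.500 kg/ha in aqueous/acetone 50/50 v/v, on 3–5 cm weeds and 1.5–2.5-leaf rice seedlings.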

CYPSE (Flatsedge) = experiment: as above; type: in vivo, Cyperus serotinus; details: postemergence weeds, rated 3 to 4 weeks after treatment
Summary of the method: as §4

[6] = tested on: SAGPY (Arrowhead (Pygmaea)); experiment: as above; type: in vivo, Sagittaria pygmaea; details: postemergence weeds, rated 3 to 4 weeks after treatment
Summary of the method: as §4

CC(C)C[C@@H](C(=O)O)N1C(=O)CSC1=Nc1cc(-n2c(=O)cc(C(F)(F)F)n(C)c2=O)c(F)cc1Cl [Compound 71, α-Isobutyl-2-{{2-chloro-5-[3,6-dihydro-3-methyl-2,6-dioxo-4-(trifluoromethyl)-1(2H)-pyrimidinyl]-4-fluorophenyl}imino}-4-oxo-3-thiazolidineacetic acid, L-]
ABUTH herbicidal rating (ABUTH (Velvetleaf); rate 0.0158 kg/ha): 9.0
ABUTH herbicidal rating (ABUTH (Velvetleaf); rate 0.0315 kg/ha): 9.0
ABUTH herbicidal rating (ABUTH (Velvetleaf); rate 0.0630 kg/ha): 9.0
GALAP herbicidal rating (GALAP (Galium); rate 0.0158 kg/ha): 4.0
GALAP herbicidal rating (GALAP (Galium); rate 0.0315 kg/ha): 6.0
GALAP herbicidal rating (GALAP (Galium); rate 0.0630 kg/ha): 7.0
ECHCG herbicidal rating (ECHCG (Barnyardgrass); rate 0.0158 kg/ha): 4.0
ECHCG herbicidal rating (ECHCG (Barnyardgrass); rate 0.0315 kg/ha): 4.0
ECHCG herbicidal rating (ECHCG (Barnyardgrass); rate 0.0630 kg/ha): 4.0
SETVI herbicidal rating (SETVI (Foxtail, Green); rate 0.0158 kg/ha): 4.0
SETVI herbicidal rating (SETVI (Foxtail, Green); rate 0.0315 kg/ha): 7.0
SETVI herbicidal rating (SETVI (Foxtail, Green); rate 0.0630 kg/ha): 9.0
ORYSAT herbicidal rating (ORYSAT (Rice, Tebonnet); rate 0.0158 kg/ha): 3.0
ORYSAT herbicidal rating (ORYSAT (Rice, Tebonnet); rate 0.0315 kg/ha): 3.5
ORYSAT herbicidal rating (ORYSAT (Rice, Tebonnet); rate 0.0630 kg/ha): 4.5
Preemergence herbicidal rating IPOHE ([1]; rate 0.0156 kg/ha): 0.0
Preemergence herbicidal rating IPOHE ([1]; rate 0.0313 kg/ha): 0.0
Preemergence herbicidal rating IPOHE ([1]; rate 0.0625 kg/ha): 0.0
Preemergence herbicidal rating IPOHE ([1]; rate 0.1250 kg/ha): 9.0
Preemergence herbicidal rating IPOHE ([1]; rate 0.2500 kg/ha): 9.0
Preemergence herbicidal rating TRZAWR ([2]; rate 0.0156 kg/ha): 0.0
Preemergence herbicidal rating TRZAWR ([2]; rate 0.0313 kg/ha): 0.0
Preemergence herbicidal rating TRZAWR ([2]; rate 0.0625 kg/ha): 0.0
Preemergence herbicidal rating TRZAWR ([2]; rate 0.1250 kg/ha): 1.0
Preemergence herbicidal rating TRZAWR ([2]; rate 0.2500 kg/ha): 3.0
Preemergence herbicidal rating ZEAMX (ZEAMX (Corn, Field); rate 0.0156 kg/ha): 0.0
Preemergence herbicidal rating ZEAMX (ZEAMX (Corn, Field); rate 0.0313 kg/ha): 0.0
Preemergence herbicidal rating ZEAMX (ZEAMX (Corn, Field); rate 0.0625 kg/ha): 0.0
Preemergence herbicidal rating ZEAMX (ZEAMX (Corn, Field); rate 0.1250 kg/ha): 3.0
Preemergence herbicidal rating ZEAMX (ZEAMX (Corn, Field); rate 0.2500 kg/ha): 3.0
ECHORC herbicidal effect rating ([3]; 0.1250 kg/ha): 0.0
ECHORC herbicidal effect rating ([3]; 0.2500 kg/ha): 7.0
CYPIR herbicidal effect rating (CYPIR (Rice Flatsedge) [4]; 0.1250 kg/ha): 3.0
CYPIR herbicidal effect rating (CYPIR (Rice Flatsedge) [4]; 0.2500 kg/ha): 7.0
Herbicidal rating CYPIR (CYPIR (Rice Flatsedge) [5]; Rate 0.1250 kg/ha): 3.0
Herbicidal rating CYPIR (CYPIR (Rice Flatsedge) [5]; Rate 0.2500 kg/ha): 7.0
Herbicidal rating CYPSE (CYPSE (Flatsedge); Rate 0.1250 kg/ha): 3.0
Herbicidal rating CYPSE (CYPSE (Flatsedge); Rate 0.2500 kg/ha): 3.0
Herbicidal rating SAGPY ([6]; Rate 0.1250 kg/ha): 0.0
Herbicidal rating SAGPY ([6]; Rate 0.2500 kg/ha): 0.0
